Measurements: patent US12194021B2, “Modified herbal compositions for neuromodulation” (University of Southern California, priority 2021, dated 2025)
Marks after values point to notes of the source that are not given here.

How the values were obtained:
[1] = Water solubility; format: physicochemical; settings: compared with natural DHM
[2] = system: GABAARs; assay: Whole-cell voltage-clamped recordings from hippocampal DGCs in slices (Itonic, mIPSCs); format: cell-based, rats; settings: for GABAergic Itonic: basal Itonic 20 pA
From the text: 2) Whole-Cell Patch-Clamp Recordings from Brain Slices. Transverse slices (400 lm) of dorsal hippocampus were obtained from wt and TG-SwDI mice (male, 20 months old) using a vibratome (VT 100; Technical Products International). Slices were perfused continuously with artificial CSF (ACSF) composed of the following (in mM): 125 NaCl, 2.5 KCl, 2 CaCl2, 2 MgCl2, 26 NaHCO3, and 10 D-glucose. The ACSF was bubbled continuously with 95% O2/5% CO2 to ensure adequate oxygenation of slices and a pH of 7.4 and kept at 34±0.5° C. for perfusion. TTX (0.5 μM), APV (40 μM), CNQX (10 μM), and CGP54626 (1 μM, GABABR antagonist) were added to ACSF to pharmacologically isolate GABAAR-mediated mIPSCs. Patch electrodes were filled with internal solution containing the following (in mM): 137 CsCl, 2 MgCl2, 1 CaCl2, 11 EGTA, 10 HEPES, and 3 ATP, pH adjusted to 7.30 with CsOH. Recordings targeted dentate gyms granule cells (DGCs) of hippocampal slices. Voltage-clamp whole-cell recording was performed using a patch clamp amplifier 3) EPM: All animals were tested anxiety levels on EPM. Animals were placed on the central area of the maze, tested for 5 min and video recorded. The following measures were scored: number of entries into open arms, closed arms, or center platform and time spent in each of these areas. Data were reported as % of number of entries in arms, % of time spent in different entries, and number of total entries.
To evaluate whether DHM-Piperidine Complex (D-P) can still potentiate GABAARs, whole-cell voltage-clamped recordings from hippocampal DGCs in slices were performed to test D-P and compared with DHM effects on GABAergic tonic current (Itonic) and miniature inhibitory postsynaptic currents (mIPSCs). […] Compared with DHM enhancing GABAergic Itonic from 20 pA (basal Itonic)→28 pA→31 pA→52 pA→55 pA, D-P enhancing GABAergic Itonic from 20 pA (basal Itonic)→35 pA→42 pA →65 pA→70 pA (Table 1).

piperidin-1-ium (2R,3R)-2-(3,4-dihydroxy-5-oxidophenyl)-3,5-dihydroxy-4-oxochroman-7-olate [D-P]
water solubility [1]: can be dissolved into water | Itonic, percent in brackets (increase over basal) ([2]; 0.1 μM): (75%)* | mIPSCs (area potentiated) ([2]; 0.1 μM): 16.7%* | GABAergic Itonic ([2]; 0.1 μM): 35 pA | Itonic, percent in brackets (increase over basal) ([2]; 0.3 μM): (110%)* | mIPSCs (area potentiated) ([2]; 0.3 μM): 23.3%* | GABAergic Itonic ([2]; 0.3 μM): 42 pA | Itonic, percent in brackets (increase over basal) ([2]; 1 μM): (225%)* | mIPSCs (area potentiated) ([2]; 1 μM): 100.0%* | GABAergic Itonic ([2]; 1 μM): 65 pA | Itonic, percent in brackets (increase over basal) ([2]; 10 μM): (250%)* | mIPSCs (area potentiated) ([2]; 10 μM): 133.3%* | GABAergic Itonic ([2]; 10 μM): 70 pA
